From PubChem BioAssay AID330 (DTP/NCI, 2004) come the findings set out here.

The test has as its system P388 leukemia ip, CD2F1 mice, survival T/C. Kind of test: NCI In Vivo Anticancer Drug Screen. Data for tumor model P388 Leukemia (intraperitoneal) in CD2F1 (CDF1) mice. The following applies: endpoint: median survival time, higher = longer survival. In outline: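 Mice carrying the transplanted tumor received test compound or vehicle. Survival was recorded in each group, and the value is the treated-group measurement divided by that of the vehicle-treated control group.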

Where [1] appears, read: dose: 50.0 mg/kg/injection, schedule: Q01DX009 (ip), vehicle: Klucel (hydroxypropylcellulose) (HPC).
The mark [2] stands for this setting: dose: 100.0 mg/kg/injection, schedule: Q01DX009 (ip), vehicle: Klucel (hydroxypropylcellulose) (HPC).
The mark [3] stands for this setting: dose: 50.0 mg/kg/injection, schedule: Q01DX009 (ip), vehicle: saline with Tween-80.
[4] abbreviates: dose: 100.0 mg/kg/injection, schedule: Q01DX009 (ip), vehicle: saline with Tween-80.
Setting [5] is: dose: 50.0 mg/kg/injection, schedule: Q01DX005 (ip), vehicle: saline with Tween-80.
Setting [6] is: dose: 100.0 mg/kg/injection, schedule: Q01DX005 (ip), vehicle: saline with Tween-80.
Setting [7] is: dose: 200.0 mg/kg/injection, schedule: Q01DX005 (ip), vehicle: saline with Tween-80.
Where [8] appears, read: dose: 50.0 mg/kg/injection, schedule: Q01DX005 (ip), vehicle: Klucel (hydroxypropylcellulose) (HPC).
The mark [9] stands for this setting: dose: 100.0 mg/kg/injection, schedule: Q01DX005 (ip), vehicle: Klucel (hydroxypropylcellulose) (HPC).
The mark [10] stands for this setting: dose: 200.0 mg/kg/injection, schedule: Q01DX005 (ip), vehicle: Klucel (hydroxypropylcellulose) (HPC).
Setting [11] is: dose: 50.0 mg/kg/injection, schedule: Q01DX009 (ip), vehicle: saline.
[12] abbreviates: dose: 100.0 mg/kg/injection, schedule: Q01DX009 (ip), vehicle: saline.
Setting [13] is: dose: 200.0 mg/kg/injection, schedule: Q01DX009 (ip), vehicle: saline.
Setting [14] is: dose: 12.5 mg/kg/injection, schedule: Q01DX009 (ip), vehicle: saline with Tween-80.
Setting [15] is: dose: 25.0 mg/kg/injection, schedule: Q01DX009 (ip), vehicle: saline with Tween-80.

Where “and” joins values, the source holds several entries; their conditions need not be identical. Equal entries are not always repeated. Inconclusive results and toxic doses are left out.

In the case of `COc1ccc(/C(C#N)=C\c2ccnc3ccccc23)c(OC)c1`, the T/C is 87 % of control (dose: 12.5 mg/kg/injection, schedule: Q01DX009 (ip), vehicle: other); 91 % of control (dose: 25.0 mg/kg/injection, schedule: Q01DX009 (ip), vehicle: other); 87 % of control (dose: 50.0 mg/kg/injection, schedule: Q01DX009 (ip), vehicle: other); 87 % of control (dose: 100.0 mg/kg/injection, schedule: Q01DX009 (ip), vehicle: other); 87 % of control (dose: 200.0 mg/kg/injection, schedule: Q01DX009 (ip), vehicle: other).

`Cc1n[nH]c(=S)n1N`: the T/C is, setting by setting: under setting [1], 94 % of control; under setting [2], 93 % of control; (dose: 200.0 mg/kg/injection, schedule: Q01DX009 (ip), vehicle: Klucel (hydroxypropylcellulose) (HPC)) 95 % of control; (dose: 400.0 mg/kg/injection, schedule: Q01DX009 (ip), vehicle: Klucel (hydroxypropylcellulose) (HPC)) 88 % of control.

Take `C=C[C@@]1(C)CC(=O)[C@]2(O)[C@@]3(C)[C@@H](O)CCC(C)(C)[C@@H]3[C@H](O)[C@@H](OC(C)=O)[C@@]2(C)O1`: the T/C runs as follows: (dose: 6.25 mg/kg/injection, schedule: Q01DX005 (ip), vehicle: saline + Tween-80 + alcohol) 95 % of control; (dose: 12.5 mg/kg/injection, schedule: Q01DX005 (ip), vehicle: saline + Tween-80 + alcohol) 102 % of control.

With `C1OC1CO[C@H]1CO[C@H]2[C@@H]1OC[C@@H]2OCC1CO1` (stereo partly specified), for the setting “dose: 600.0 mg/kg/injection, schedule: Q04DX003 (ip), vehicle: saline”, the T/C is 172 % of control.

Consider `CN(C)P1(=O)NCC(C)(C)CO1` (stereo unspecified), for which the T/C runs as follows: (dose: 50.0 mg/kg/injection, schedule: Q01DX005 (ip), vehicle: saline) 104 % of control; (dose: 100.0 mg/kg/injection, schedule: Q01DX005 (ip), vehicle: saline) 96 % of control; (dose: 200.0 mg/kg/injection, schedule: Q01DX005 (ip), vehicle: saline) 96 % of control.

Take `O=C1OC(C(Cl)(Cl)Cl)NC1Cc1ccccc1` (stereo unspecified): the T/C was 107 % of control under setting [3]; 103 % of control under setting [4]; 110 % of control (dose: 200.0 mg/kg/injection, schedule: Q01DX009 (ip), vehicle: saline with Tween-80).

As for `Cc1cc(/C=C2\SC(=S)NC2=O)cc(C)c1O`, the T/C under setting [5] is 110 % of control, the T/C under setting [6] was 94 % of control and the T/C under setting [7] is 90 % of control.

Regarding `CCCc1cc2c(=O)c(C(=O)OC)c[nH]c2cc1N(CC)CC`, the T/C reads like this: under setting [8], 96 % of control; under setting [9], 100 % of control; under setting [10], 104 % of control.

Consider `Oc1ccc2c3c1OC1CCCC4[C@H](C2)N(Cc2ccoc2)CC[C@@]314` (stereo partly specified), for which the T/C is, setting by setting: under setting [11], 91 % of control; under setting [12], 98 % of control; under setting [13], 91 % of control.

As to `COc1cc(N(CCCl)CCCl)ccc1C=Nc1ccccc1C(=O)O`, the T/C runs as follows: (dose: 12.37 mg/kg/injection, schedule: Q04DX003 (ip), vehicle: saline with Tween-80) 195 % of control; (dose: 18.75 mg/kg/injection, schedule: Q04DX003 (ip), vehicle: saline with Tween-80) 181 % of control and 268 % of control.

In the case of `Cc1cc(N2C(=O)CCSC2=S)ccc1F`, the T/C is, setting by setting: (dose: 12.5 mg/kg/injection, schedule: Q01DX009 (ip), vehicle: saline) 101 % of control; (dose: 25.0 mg/kg/injection, schedule: Q01DX009 (ip), vehicle: saline) 108 % of control; under setting [11], 108 % of control; (dose: 50.0 mg/kg/injection, schedule: Q01DX009 (ip), vehicle: suspension in saline) 91 % of control; (dose: 100.0 mg/kg/injection, schedule: Q01DX009 (ip), vehicle: suspension in saline) 94 % of control; (dose: 200.0 mg/kg/injection, schedule: Q01DX009 (ip), vehicle: suspension in saline) 88 % of control.

Take `CCCCCC(=O)OC(C)Cl` (stereo unspecified): the T/C is 99 % of control under setting [11], 97 % of control under setting [12] and 106 % of control under setting [13].

Turning to `Cc1c(OCC(=O)N/N=C/c2ccc(N(CCCl)CCCl)cc2)ccc2c(=O)c3ccccc3oc12`, the T/C was 96 % of control (dose: 60.0 mg/kg/injection, schedule: Q01DX005 (ip), vehicle: Klucel (hydroxypropylcellulose) (HPC)) and 98 % of control (dose: 120.0 mg/kg/injection, schedule: Q01DX005 (ip), vehicle: Klucel (hydroxypropylcellulose) (HPC)).

As to `CCOC(=O)c1cnc2c(ccc3cc(OC)ccc32)c1NCCCN(CC)CC`, the T/C was 97 % of control (dose: 25.0 mg/kg/injection, schedule: Q01DX005 (ip), vehicle: Klucel (hydroxypropylcellulose) (HPC)); 97 % of control under setting [8]; 100 % of control under setting [9]; 97 % of control under setting [10].

For `CN(CCN1C(=O)c2cccc3cc([N+](=O)[O-])cc(c23)C1=O)CCN1C(=O)c2cccc3cc([N+](=O)[O-])cc(c23)C1=O`, the T/C by setting is: under setting [5], 98 % of control; under setting [6], 97 % of control; under setting [7], 114 % of control.

As for `CCCCCC(=O)C(=O)c1ccc(O)c(C)c1O`, the T/C under setting [1] was 95 % of control and the T/C under setting [2] was 89 % of control.

For `Nc1nnc(SCCCCCCSc2nnc(N)s2)s1`, the T/C reads like this: under setting [5], 86 % of control; under setting [6], 86 % of control.

Turning to `CC1(C)C=C(C(=O)ON2C(=O)CCC2=O)C(C)(C)N1O`, the T/C under setting [1] was 113 % of control and the T/C under setting [2] was 106 % of control.

Turning to `Cc1cc2c(c(=O)o1)C1=S(SC(c3ccccc3)=C1)S2` (stereo unspecified), the T/C (dose: 100.0 mg/kg/injection, schedule: Q04DX002 (ip), vehicle: saline with Tween-80) was 90 % of control; the T/C (dose: 200.0 mg/kg/injection, schedule: Q04DX002 (ip), vehicle: saline with Tween-80) is 99 % of control; the T/C (dose: 400.0 mg/kg/injection, schedule: Q04DX002 (ip), vehicle: saline with Tween-80) is 105 % of control.

`CCOC(=O)C(=CNc1ccccc1-n1cccc1)C(=O)OCC`: the T/C is, setting by setting: under setting [8], 100 % of control; under setting [9], 108 % of control; under setting [10], 93 % of control.

`Cc1ccc(S(=O)(=O)C(CCS(C)(=O)=O)C(=O)c2ccccc2)cc1` (stereo unspecified): the T/C by setting is: (dose: 60.0 mg/kg/injection, schedule: Q01DX005 (ip), vehicle: saline with Tween-80) 100 % of control and 93 % of control; (dose: 120.0 mg/kg/injection, schedule: Q01DX005 (ip), vehicle: saline with Tween-80) 92 % of control; (dose: 240.0 mg/kg/injection, schedule: Q01DX005 (ip), vehicle: saline with Tween-80) 88 % of control and 90 % of control and 91 % of control.

As for `NC(=S)N/N=C/c1ccc2c(c1)OCO2`, the T/C was 100 % of control under setting [3] and 100 % of control under setting [4].

As to `COC1=Cc2c(O)c3c(c(O)c2C(OC2CC(N)C(O)C(C)O2)C1)C(=O)c1c(OC)cccc1C3=O` (stereo unspecified), the T/C runs as follows: (dose: 3.13 mg/kg/injection, schedule: Q04DX003 (ip), vehicle: water) 98 % of control; (dose: 6.25 mg/kg/injection, schedule: Q04DX003 (ip), vehicle: water) 98 % of control; (dose: 12.5 mg/kg/injection, schedule: Q04DX003 (ip), vehicle: water) 102 % of control; (dose: 25.0 mg/kg/injection, schedule: Q04DX003 (ip), vehicle: water) 109 % of control; (dose: 50.0 mg/kg/injection, schedule: Q04DX003 (ip), vehicle: water) 107 % of control.

For `CC(C)N1C(=O)C=C(c2ccc([N+](=O)[O-])cc2)C1=O`, the T/C is 105 % of control under setting [14], 105 % of control under setting [15] and 106 % of control under setting [3].

In the case of `CCC(=O)c1cc(Cl)ccc1O`, the T/C runs as follows: (dose: 37.5 mg/kg/injection, schedule: Q01DX001 (ip), vehicle: other) 104 % of control; (dose: 75.0 mg/kg/injection, schedule: Q01DX001 (ip), vehicle: other) 100 % of control; (dose: 150.0 mg/kg/injection, schedule: Q01DX001 (ip), vehicle: other) 100 % of control.

Consider `CC1=CNC(=O)CC(C)(C)C1`, for which the T/C is 105 % of control under setting [5], 105 % of control under setting [6] and 104 % of control under setting [7].

Regarding `C/C=C1/C[N+]2(C)CCc3c([nH]c4ccccc34)C2CC1C(CO)C(=O)OC` (stereo unspecified), the T/C under setting [14] is 96 % of control, the T/C under setting [15] is 104 % of control and the T/C under setting [3] is 98 % of control.
